Tests used:
SK-OV-3 [1] = experiment: cells; conditions: Homo sapiens
Description: Antiproliferative activity against human SK-OV-3 cells assessed as inhibition of cell growth measured after 22 to 70 hrs by CCK-8 assay

[2] = Cytotoxicity against human FTE-187 cells assessed as inhibition of cell growth upto 50 uM measured after 24 to 48 hrs by CCK-8 assay; assay type: toxicity, cell-based; conditions: fte-187, 50 µM, time 24-48 hrs
SK-OV-3 [3] = experiment: Cytotoxicity against human SK-OV-3 cells assessed as inhibition of cell growth measured after 24 hrs by CCK-8 assay; assay type: toxicity, cell-based; conditions: sk-ov-3, 24 h
A2780 = experiment: Cytotoxicity against human A2780 cells assessed as inhibition of cell growth measured after 24 hrs by CCK-8 assay; assay type: toxicity, cell-based; conditions: a2780, 24 h
SK-OV-3 [4] = experiment: Down regulation of PLK1 expression in human SK-OV-3 cells by Western blotting analysis; assay type: functional, cell-based; conditions: dose 0.1-10 µg/ml
SK-OV-3 [5] = experiment: Down regulation of CDC25B expression in human SK-OV-3 cells by Western blotting analysis; assay type: functional, cell-based; conditions: dose 0.1-10 µg/ml
HepG2 = experiment: cells; conditions: Homo sapiens
Description: Antiproliferative activity against human HepG2 cells assessed as inhibition of cell growth measured after 22 to 70 hrs by CCK-8 assay

HCT-116 = experiment: cells; conditions: Homo sapiens
Description: Antiproliferative activity against human HCT-116 cells assessed as inhibition of cell growth measured after 22 to 70 hrs by CCK-8 assay

SK-OV-3 [6] = experiment: cells; conditions: Homo sapiens, SK-OV-3, 24 h
Description: Cytotoxicity against human SK-OV-3 cells expressing low FOXM1 assessed as inhibition of cell growth measured after 24 hrs by CCK-8 assay

SMILES | IC50 (SK-OV-3 [1]) [µM] | further results
Nc1ccccc1COc1ccc(OCCOCCNC2CCCC2)cc1 | 14 | 
c1ccc(COc2ccc(OCCOCCNc3ccncc3)cc2)cc1 | 20.6 | 
Clc1ccc(COc2ccc(OCCOCCNC3CCCCC3)cc2)cc1 | 2.65 | Activity [2]: Non-Toxic; Activity (SK-OV-3 [3]): Toxic; Activity (A2780): Toxic; Activity (SK-OV-3 [4]): Dose-Dependent Effect; Activity (SK-OV-3 [5]): Dose-Dependent Effect; IC50 (HepG2): 15.1 µM; IC50 (HCT-116): 2.69 µM; IC50 (SK-OV-3 [6]): 65.4 µM
O=C(O)c1cccc(COc2ccc(OCCOCCNC3CCCC3)cc2)c1 | > 100 | 
COC(=O)c1ccc(COc2ccc(OCCOCCNC3CCCC3)cc2)cc1 | 6.99 | 
c1ccc(COc2ccc(OCCOCCNC3CCCCC3)cc2)cc1 | 7.37 | 
COC(=O)c1ccccc1COc1ccc(OCCOCCNC2CCCC2)cc1 | > 100 | 
OCCOCCOCCOc1ccc(OCc2ccccc2)cc1 | 59.4 | 
O=C(O)c1ccc(COc2ccc(OCCOCCNC3CCCC3)cc2)cc1 | > 100 | 
Cc1ccc(COc2ccc(OCCOCCNC3CCCC3)cc2)cc1 | 17.2 | 
O=Cc1ccc(COc2ccc(OCCOCCNC3CCCC3)cc2)cc1 | 45 | 
COC(=O)c1ccc(COc2ccc(OCCOCCNC3CCCCC3)cc2)cc1 | 6.22 | IC50 (HepG2): 30.3 µM; IC50 (HCT-116): 5.3 µM
c1ccc(COc2ccc(OCCOCCNC3CCOC3)cc2)cc1 (stereo not given) | 48 | 
c1ccc(COc2ccc(OCCOCCNC3CC3)cc2)cc1 | 47.2 | 
O=[N+]([O-])c1ccc(COc2ccc(OCCOCCNC3CCCC3)cc2)cc1 | 20.3 | 
O=[N+]([O-])c1ccccc1COc1ccc(OCCOCCNC2CCCCC2)cc1 | 2.88 | IC50 (HepG2): 25.5 µM; IC50 (HCT-116): 11.1 µM
c1ccc(COc2ccc(OCCOCCNC3CCCCCC3)cc2)cc1 | 7.46 | 
Nc1c(C(=O)Nc2ccc(F)cc2)sc2nc(-c3cccs3)cc(C(F)(F)F)c12 | 51.4 | IC50 (HepG2): 70.5 µM; IC50 (HCT-116): 86.1 µM
O=[N+]([O-])c1ccccc1COc1ccc(OCCOCCNC2CCCC2)cc1 | 5.37 | 
O=[N+]([O-])c1cccc(COc2ccc(OCCOCCNC3CCCC3)cc2)c1 | 15.4 | 
COc1cc(OCCOCCNC2CCCC2)ccc1OCc1ccccc1 | 44.6 | 

SMILES | IC50 (SK-OV-3 [1]) [µM] | further results
c1ccc(COc2ccccc2OCCOCCNC2CCCC2)cc1 | 40.7 | 
CC(C)(C)OC(=O)n1ccc(NCCOCCOc2ccc(OCc3ccccc3)cc2)c1 | 13 | 
c1ccc(COc2ccc(COc3ccc(OCCOCCNC4CCCCC4)cc3)cc2)cc1 | 8.08 | IC50 (HepG2): 18.1 µM; IC50 (HCT-116): 4.35 µM
COC(=O)c1cccc(COc2ccc(OCCOCCNC3CCCC3)cc2)c1 | 45.5 | 
Nc1ccc(COc2ccc(OCCOCCNC3CCCC3)cc2)cc1 | 31.7 | 
CN(C)CCOCCOc1ccc(OCc2ccccc2)cc1 | 11.9 | 
c1ccc(COc2ccc(COc3ccc(OCCOCCNC4CCCC4)cc3)cc2)cc1 | 10 | 
c1ncn(-c2ccc(OCCOCCNC3CCCC3)cc2)n1 | > 100 | 
c1ccc(COc2ccc(OCCOCCNc3cc[nH]c3)cc2)cc1 | 11.3 | 
COc1ccc(COc2ccc(OCCOCCNC3CCCC3)cc2)cc1 | 15.7 | 
c1ccc(COc2ccc(OCCOCCOC3CCCC3)cc2)cc1 | > 100 | 
c1cc2c(cc1OCCOCCNC1CCCC1)CCCC2 | 31.9 | 
c1ccc2cc(OCCOCCNC3CCCC3)ccc2c1 | 40.6 | 
Clc1ccc(COc2ccc(OCCOCCNC3CCCC3)cc2)cc1 | 7.67 | 
c1ccc(COc2ccc(OCCOCCNC3CCC3)cc2)cc1 | 25 | 
CCOc1ccc(OCCOCCNC2CCCC2)cc1 | 90.5 | 
O=C(O)c1ccccc1COc1ccc(OCCOCCNC2CCCC2)cc1 | > 100 | 
c1ccc(COc2ccc(OCCOCCNC3CCCC3)cc2)cc1 | 24.8 | IC50 (HepG2): 25.4 µM; IC50 (HCT-116): 12.9 µM
c1ccc(COc2ccc(OCCOCCNc3ccccc3)cc2)cc1 | > 100 | 
COc1ccc(OCCOCCNC2CCCC2)cc1 | 99.1 | 
Nc1cccc(COc2ccc(OCCOCCNC3CCCC3)cc2)c1 | 10.8 | 
